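Exposure lasted 48 hours, with cells grown in 96-well plates and compounds tested at five concentrations. TGI marks complete inhibition of growth.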
Experiments:
Assay in all cases: NCI-60 cell line screen, 48 h
[1] = tested on: CAKI-1 renal
[2] = tested on: CCRF-CEM leukemia
[3] = tested on: NCI-H226 lung
[4] = tested on: RPMI-8226 leukemia
[5] = tested on: SK-MEL-5 melanoma
[6] = tested on: SNB-19 CNS
[7] = tested on: SNB-75 CNS

For O=c1c(Cc2ccc(Cl)cc2)nnc2sc(-c3ccc(-c4ccc(Cl)cc4Cl)o3)nn12, the TGI [1] was over 100 µM, the TGI [2] was over 100 µM and the TGI [3] was over 100 µM. It also gave a TGI [4] of over 100 µM, a TGI [5] of over 100 µM and a TGI [6] of over 100 µM.
CC(C)(C)N/N=C(\C(=O)NC1=C(Cl)C(=O)c2ccccc2C1=O)C1C=CCS1(=O)=O (centres undefined) was tested, and the TGI [1] was 45.6 µM, the TGI [2] was over 100 µM and the TGI [3] was 27.9 µM. For the same compound, the TGI [4] was over 100 µM, the TGI [6] was over 100 µM and the TGI [7] was 24 µM.
CCc1c(-c2ccc(OC)cc2)oc(OC)c(C)c1=O was tested, and the TGI [1] was over 100 µM, the TGI [2] was over 100 µM and the TGI [5] was over 100 µM. It also gave a TGI [6] of over 100 µM and a TGI [7] of over 100 µM.
C/C(=C/CC[C@]1(CO)CC[C@]2(C)[C@H](CC[C@@H]3[C@@]4(C)CC[C@H](OC5OC(CO)C(O)C(O)C5OC5OC(CO)C(O)C(O)C5O)C(C)(C)[C@@H]4CC[C@]32C)[C@H]1O)CO (some centres undefined) showed a TGI [1] of over 100 µM, a TGI [2] of over 100 µM and a TGI [3] of over 100 µM. For the same compound, the TGI [4] was over 100 µM, the TGI [5] was over 100 µM and the TGI [6] was over 100 µM. For the same compound, the TGI [7] was over 100 µM.
In the case of N/C1=C/C(=O)NC(=O)c2c(c3ccccc3oc2=O)C1, the TGI [1] is reported as over 100 µM, the TGI [2] is reported as over 100 µM and the TGI [3] is reported as over 100 µM. For the same compound, the TGI [4] was over 100 µM, the TGI [6] was over 100 µM and the TGI [7] was over 100 µM.
Cc1cccc(CC(Cc2ccc(C)cc2C(=O)O)C(=O)O)c1 (centres undefined) gave a TGI [1] of over 100 µM, a TGI [2] of over 100 µM and a TGI [3] of over 100 µM. The TGI [4] was over 100 µM, the TGI [5] was over 100 µM and the TGI [6] was over 100 µM. It also gave a TGI [7] of over 100 µM.
Cc1cc2nc3c(C#N)c4c(c(-c5ccc(Cl)cc5)n3c2cc1C)CCC4 gave a TGI [1] of 42.9 µM, a TGI [2] of 70.7 µM and a TGI [3] of 41 µM. For the same compound, the TGI [4] was 74.4 µM, the TGI [5] was 40.3 µM and the TGI [6] was 37.8 µM.
COC(=O)Nc1nc2ccc(S(=O)(=O)N3CCOCC3)cc2[nH]1 gave a TGI [1] of over 100 µM, a TGI [2] of over 100 µM and a TGI [3] of over 100 µM. For the same compound, the TGI [4] was over 100 µM, the TGI [5] was over 100 µM and the TGI [6] was over 100 µM. The TGI [7] was over 100 µM.
Compound Cc1ccc2c(c1)nc1n2C(N)=Nc2ccccc2S1 has a TGI [1] of over 100 µM, a TGI [3] of over 100 µM and a TGI [4] of over 100 µM. It also gave a TGI [5] of over 100 µM, a TGI [6] of over 100 µM and a TGI [7] of over 100 µM.
Compound O=C1CSC(c2ccc(Cl)cc2Cl)N1c1ccc(Oc2ccc(Cl)cc2)c(Cl)c1 (centres undefined) has a TGI [1] of 98.1 µM, a TGI [2] of 61.3 µM and a TGI [3] of over 100 µM. The TGI [4] was 68.3 µM, the TGI [5] was 43.6 µM and the TGI [6] was over 100 µM. The TGI [7] was 60 µM.
In the case of CC(C)(NC(=O)OCc1ccccc1)C(=O)OC(=O)C(C)(C)NC(=O)OCc1ccccc1, the TGI [1] is reported as over 100 µM, the TGI [2] is reported as over 100 µM and the TGI [3] is reported as over 100 µM. For the same compound, the TGI [4] was over 100 µM, the TGI [5] was over 100 µM and the TGI [6] was over 100 µM. The TGI [7] was over 100 µM.
OC1(c2ccc(Cl)cc2)c2ccccc2-c2nc3ccccc3n21 (centres undefined) showed a TGI [1] of over 100 µM, a TGI [2] of over 100 µM and a TGI [3] of over 100 µM. For the same compound, the TGI [4] was over 100 µM, the TGI [5] was over 100 µM and the TGI [6] was 97.3 µM. The TGI [7] was over 100 µM.
With O=C(SCc1cccc2ccccc12)c1ccc(Cl)cc1 the TGI [1] was over 100 µM, the TGI [2] was over 100 µM and the TGI [3] was over 100 µM. For the same compound, the TGI [4] was over 100 µM, the TGI [5] was over 100 µM and the TGI [6] was over 100 µM. For the same compound, the TGI [7] was over 100 µM.
For CC1OC(OC2C(O[C@H]3CC[C@@]4(C)C(=CC[C@H]5[C@@H]6C[C@@H]7O[C@]8(CC[C@@H](C)CO8)[C@@H](C)[C@@H]7[C@@]6(C)CC[C@@H]54)C3)OC(CO)C(O)C2O)C(O)C(O)C1O (some centres undefined), the TGI [1] was 3.54 µM, the TGI [2] was 1.21 µM and the TGI [3] was 8.03 µM. The TGI [4] was over 25 µM, the TGI [5] was 7.52 µM and the TGI [6] was 2.38 µM. The TGI [7] was 2.62 µM.
In the case of COC(=O)c1cc(OC)c(OC)c(OC)c1-c1cc2c(cc1C=O)OCO2, the TGI [1] is reported as over 10 µM, the TGI [2] is reported as over 10 µM and the TGI [3] is reported as over 10 µM. It also gave a TGI [4] of over 10 µM, a TGI [5] of over 10 µM and a TGI [6] of over 10 µM. For the same compound, the TGI [7] was over 10 µM.
CC(C)=CC[C@]12CCN(C)[C@H]1N(S(=O)(=O)c1ccccc1)c1ccccc12 was tested, and the TGI [1] was over 100 µM, the TGI [2] was over 100 µM and the TGI [3] was over 100 µM. It also gave a TGI [4] of over 73 µM, a TGI [6] of over 100 µM and a TGI [7] of over 100 µM.
Compound CC(=O)OCC1OC(n2c(Br)nc3c2c(=O)n(C)c(=O)n3C)C(OC(C)=O)C1OC(C)=O (centres undefined) has a TGI [1] of over 100 µM, a TGI [3] of over 100 µM and a TGI [4] of 95.6 µM. It also gave a TGI [5] of over 100 µM, a TGI [6] of over 100 µM and a TGI [7] of over 100 µM.
For NCCN1C(=O)c2ccccc2C1c1ccc(Cl)cc1 (centres undefined), the TGI [1] was over 100 µM, the TGI [2] was over 100 µM and the TGI [4] was over 100 µM. For the same compound, the TGI [5] was over 100 µM, the TGI [6] was over 100 µM and the TGI [7] was over 100 µM.
Compound Cc1c2c(n(CC(c3ccccc3)c3ccccc3)c1C)NN=C(C#N)S2(=O)=O has a TGI [1] of over 100 µM, a TGI [3] of over 100 µM and a TGI [4] of over 100 µM. The TGI [5] was over 100 µM, the TGI [6] was over 100 µM and the TGI [7] was over 100 µM.
O=c1[nH]c(=O)n(COCc2ccccc2)cc1Nc1ccc(Br)cc1 showed a TGI [1] of over 100 µM, a TGI [2] of over 100 µM and a TGI [3] of over 100 µM. The TGI [4] was over 100 µM, the TGI [5] was over 100 µM and the TGI [6] was over 100 µM.
Compound CCCCOC(=O)C1CC[C@H]2[C@@H]3CCc4cc(OC(=O)c5cccc6c(=O)c7ccccc7[nH]c56)ccc4[C@H]3CC[C@]12C (some centres undefined) has a TGI [1] of 13.7 µM, a TGI [3] of 20.6 µM and a TGI [4] of 20.6 µM. It also gave a TGI [5] of 12.8 µM and a TGI [7] of 18.3 µM.
With c1ccc2c(c1)cc1n2CCc2c-1[nH]c1ccccc21 the TGI [1] was over 10 µM, the TGI [2] was over 10 µM and the TGI [3] was over 10 µM. It also gave a TGI [4] of over 10 µM, a TGI [5] of over 10 µM and a TGI [6] of over 10 µM. The TGI [7] was over 10 µM.
COc1cc(-c2c3c(cc4c2OCO4)[C@@H](Nc2ccc(-c4ccc(-c5ccc(N[C@@H]6c7cc8c(cc7C(c7cc(OC)c(O)c(OC)c7)[C@H]7C(=O)OC[C@H]67)OCO8)cc5)cc4)cc2)[C@H]2COC(=O)[C@@H]2C3)cc(OC)c1O (some centres undefined) showed a TGI [1] of 8.8 µM, a TGI [2] of over 100 µM and a TGI [3] of 6.31 µM. The TGI [5] was 7.58 µM and the TGI [6] was 12.5 µM.
In the case of CC(C)C1=CC(=O)[C@@](C)(C2[C@H](O)C[C@@]3(C)[C@@H]4CC=C5[C@@H](CC[C@@H](OC6OCC(O)C(O)C6OC6OC(C)C(O)C(O)C6O)C5(C)C)[C@]4(C)C(=O)C[C@]23C)O1 (some centres undefined), the TGI [1] is reported as over 100 µM, the TGI [2] is reported as over 100 µM and the TGI [3] is reported as over 100 µM. For the same compound, the TGI [4] was over 100 µM, the TGI [5] was over 100 µM and the TGI [6] was over 100 µM. For the same compound, the TGI [7] was over 100 µM.
COc1cc(OC)c2c(c1)OC(c1cccnc1)C(c1ccccc1)C2=O (centres undefined) was tested, and the TGI [1] was over 100 µM, the TGI [2] was over 100 µM and the TGI [3] was over 100 µM. For the same compound, the TGI [4] was over 100 µM, the TGI [5] was over 100 µM and the TGI [6] was over 100 µM. For the same compound, the TGI [7] was over 100 µM.

— PubChem BioAssay (NCI)
